# Reference: paper PMC11222350, “Preclinical evaluation of [^18F]FP-CIT, the radiotracer targeting dopamine transporter for diagnosing Parkinson’s disease: pharmacokinetic and efficacy analysis” (EJNMMI Research, 2024)
# Where two headings read alike, the source gives them in different places.
# Columns and labels:
# [1] = Metabolites of cold authentic FP-CIT in normal rats (LC-MS); format: in vivo, Sprague–Dawley rats; details: FP-CIT 5 mg/kg i.v.; for presence in brain samples: 30 and 60 min
# Description: Male Sprague–Dawley Rats (group III) were anesthetized with 2% isoflurane in oxygen, and cold authentic FP-CIT dissolved in 10% DMSO normal saline diluent was intravenously injected via the tail vein (5 mg/kg; 5 mg/mL). Rats were sacrificed at different time points (30 and 60 min after injection, n = 3 each), and the tissues of interest (i.e., blood, urine, brain, and liver) were harvested. One rat injected with 10% DMSO in normal saline was used as the negative control. Plasma obtained from the blood samples was centrifuged at 3000 rpm for 10 min at room temperature. Urine samples were collected from the urinary bladder using a 1 mL syringe at specific time points. After adding ice-cold acetonitrile at a volume of onefold (v/v) for each plasma and urine sample obtained, the samples were centrifuged at 12,000 rpm for 5 min at 4 °C and the supernatant was collected. The brain and liver tissues were separately homogenized in 1 mL of a 0.9% normal saline/acetonitrile (95:5 v/v) solution using a homogenizer. The obtained homogenate was deproteinized using 500 μL of acetonitrile and centrifuged (4 °C, 12,000 rpm, 10 min), followed by collecting the supernatant. The supernatants obtained by centrifuging the blood, brain, liver, and urine samples were filtered with 2 mL of acetonitrile using a 0.45 μm UHP syringe filter to remove residues. Compounds identified as FP-CIT metabolites in a previous study were modified to a cold-fluorine-authentic form and used as positive controls. The filtered samples were analyzed qualitatively and quantitatively based on the positive controls.
# The ISQEM LC–MS system (Thermo Fisher, Waltham, MA, USA) equipped with OptimaPak C18 (5 μm, 4.6 × 250 mm) column was used. The HPLCf elution condition (A: 0.1% (v/v) trifluoroacetic acid, B: acetonitrile) was as follows: a gradient elution; 90% (A), 10% (B) (0 min) → 40% (A), 60% (B) (35 min); and a flow rate of 1 mL/min. The injection volume of each sample was 20 μL. Electrospray ionization mass was scanned in both the positive and negative modes. Mass range (amu) was 100–2000; dwell times, 0.1 s; source voltage, 3000 V (positive) and − 2000 V (negative); and vaporizer temperature, 550 °C; nitrogen was used as nebulizing gas. For analysis, the masses of [M + H]^+ of cold authentic FP-CIT administrated and metabolites were extracted from the obtained total ion chromatogram, and Gaussian distribution curve fitting was conducted.
# [2] = cited from earlier work
# dopamine transporter [3] = details: PET scanning; cited from earlier work
# dopamine transporter [4] = system: dopamine transporter; design: method as in PMID 30028339, PMID 23758882, PMID 15908232; details: cited from earlier work
# [5] = design: method as in earlier work; details: cited from earlier work
# serotonin transporter = details: cited from earlier work
smiles,measurement,setting,value
"COC(=O)C1C(c2ccc(I)cc2)CC2CCC1N2CCCF (stereo not drawn) [FP-CIT, N-(3-fluoropropyl)-2β-carboxymethoxy-3β-(4-iodophenyl) nortropane]","metabolite distribution in blood, brain, liver, urine EIC",[1]; 30 min after administration,mainly observed in all the EIC of metabolic pathways
O=C(O)C1C(c2ccc(I)cc2)CC2CCC1N2CCCF (centres unmarked) [FP-CIT-acid],presence in brain samples,[1],Neither FP-CIT-acid nor nor-β-CIT-acid was observed in the brain samples
same,"metabolite distribution, urine",[1]; 30 min after administration,most distinctly observed in the urine samples
same,amount relative to other forms,[2],< 0.3%
same,blood–brain barrier penetration,[2],cannot penetrate the blood–brain barrier
[11CH3]OC(=O)C1C(c2ccc(I)cc2)CC2CCC1N2CCCF (centres unmarked) [[^11C]FP-CIT],time of transient equilibrium in time activity curves (specific binding to the striatum),dopamine transporter [3],70 to 90 min
CN1[C@H]2CC[C@@H]1[C@@H](CN(CC[S-])CC[N-]CC[S-])[C@@H](c1ccc(Cl)cc1)C2.[O]=[99Tc+4] [[^99mTc]TRODAT-1],correlation (R) with TH IHC,dopamine transporter [4],0.899
COC(=O)[C@H]1[C@@H](c2ccc([123I])cc2)C[C@@H]2CC[C@H]1N2CCCF [[^123I]FP-CIT],correlation (R) with dopamine transporter IHC,dopamine transporter [4],0.88
same,injected dose excreted,"[5]; till 6 h post-injection, male Wistar rats",approximately 10%
same,injected dose excreted,"[5]; until 72 h, animals",more than 80%
COC(=O)[C@H]1C(c2ccc([123I])cc2)C[C@@H]2CC[C@H]1N2C (stereo partly drawn) [[^123I]β-CIT],correlation (R) with TH IHC,dopamine transporter [4],0.911
same,correlation (R) with dopamine transporter IHC,dopamine transporter [4],0.936
O=C(O)C1C2CCC(CC1c1ccc(I)cc1)N2 (stereo not drawn) [nor-β-CIT-acid],presence in brain samples,[1],Neither FP-CIT-acid nor nor-β-CIT-acid was observed in the brain samples
same,metabolite distribution,[1]; 60 min post-injection,"appeared in the blood, urine, and liver samples"
same,blood–brain barrier penetration,[2]; low-lipophilic metabolite of [^123I]FP-CIT,difficulty penetrating the BBB
COC(=O)C1C2CCC(CC1c1ccc(I)cc1)N2 (stereo not drawn) [nor-β-CIT],"metabolite distribution in blood, brain, liver, urine EIC",[1]; 30 min after administration,mainly observed in all the EIC of metabolic pathways
same,affinity for serotonin transporter relative to FP-CIT,serotonin transporter,higher affinity for serotonin transporter than FP-CIT
